Literature values in patent US10874768B2, “Drug eluting medical device” (priority 2017, dated 2020).

Settings: human, 3 patients, 180 mg/m^2 infusion over 3 hours

In the case of CC(=O)O[C@H]1C(=O)[C@@]2(C)[C@H]([C@H](OC(=O)c3ccccc3)[C@]3(O)C[C@H](OC(=O)[C@H](O)[C@@H](NC(=O)c4ccccc4)c4ccccc4)C(C)=C1C3(C)C)[C@]1(OC(C)=O)CO[C@@H]1C[C@@H]2O [paclitaxel], the Cmax is given as 5.23 µM.
